What was measured:
PC-3 cells = test: Dual Sensor: MitoCasp Assay in PC-3 prostate cancer cells; format: cell-based, human
Excerpt: (§1) Techniques to assay enzymatic and signaling processes involved in apoptosis have been developed as standard protocols. One example of an early step in apoptosis, is the release of cytochrome C from mitochondria and the activation of caspase-3. Induction of the caspases (a series of cytosolic proteases) is one of the most consistently observed features of apoptosis. Caspases are a family of proteolytic enzymes that transmit the apoptotic signal using a proteolytic cascade. […] Caspases 3 and 7 are effector caspases, central to the caspase cascade pathways. In particular, caspase-3 plays a central role in the process. When caspases are activated, they cleave target proteins; one of the most important of these is poly-(ADP-ribose) polymerase (PARP), which is a protein located in the nucleus. Therefore, assays detecting release of cytochrome C, detecting caspase-3 activity and detecting PARP degradation are effective determinants of apoptosis. The loss of mitochondrial membrane potential is known to occur during apoptosis. To analyze mitochondrial membrane potential, a cationic dye may be used which accumulates in the mitochondria of healthy cells. Collapse of the mitochondrial membrane potential during apoptosis prevents the dye from accumulating in the mitochondria resulting in a decrease in fluorescent intensity that can be detected with flow cytometry. Dual Sensor: MitoCasp™ (Cell Technology) used herein in the Examples is an assay that measures caspase 3/7 activity and cells with decreased mitochondrial membrane potential. In this assay, caspase 3/7 activity is detected using a cell permeable carboxyfluorescein labeled caspase inhibitor, which binds covalently to active caspases 3 and 7. Cells that contain bound inhibitor are detected by an increase in fluorescence when samples are analyzed by flow cytometry.
PC-3 cells (ATCC #CRL-1435) were derived from a prostate adenocarcinoma (Kaighn et al., 1979). They were maintained in RPMI 1640 medium (Gibco) supplemented with 10% fetal bovine serum (Cansera), 100 U/mL penicillin, and 100 μg/mL streptomycin and 0.25 μg/mL amphotericin B. Cultures were maintained in medium at 37° C. with 5% CO2 and 100% relative humidity.
To harvest adherent cells, the existing medium was removed and cells were dissociated with 0.25% (w/v) trypsin-EDTA·4Na in Hank's Balanced Salt Solution (Gibco). To block the proteolytic action of the trypsin, the cells were resuspended in an excess of media containing fetal bovine serum. Cells were transferred to a 15 mL conical centrifuge tube and pelleted by centrifugation at 500×g for 5 min. Cell pellets were resuspended in media, and an aliquot of the cells were seeded into a new flask.
PC-3 cells were seeded in tissue culture flasks with regular growth medium and maintained under normal conditions. […] Following incubation under normal growth conditions for the specified time, cells were washed once with cold phosphate-buffered saline (PBS) (137 mM NaCl, 2.7 mM KCl, 4.3 mM Na2HPO4.7H2O, 1.4 mM KH2PO4) and harvested as previously described. Assays were carried out according to instructions given in kits. All Flow Cytometry was performed using a Coulter Epics XL (Beckman).
(§2) Following centrifugation at 500×g for 5 min, cell pellets were resuspended in PBS at 3.3×10^6 cells/mL. 300 μL cell suspension was mixed with 10 μL each of 30X Mitochondria Membrane Potential Dye and 30X Caspase 3/7 detection reagent. Following incubation for 60 min under normal growth conditions, cells were washed twice with 1× wash buffer and resuspended in 0.5 mL 1× wash buffer. Samples were analyzed by flow cytometry measuring the fluorescence emissions from 515 nm to 530 nm for caspase detection, and 574 nm to 600 nm for mitochondrial membrane potential detection.

HT-29 cancer cells = test: Dual Sensor: MitoCasp Assay in HT-29 colon cancer cells; format: cell-based, human; settings: HT-29 cells, 2.5 μM, 24 hours
Excerpt: as §1, with “To analyze mitochondrial membrane potential, a cationic dye may be used which accumulates in the mitochondria of healthy cells.” left out, “Dual Sensor: MitoCasp™ (Cell Technology) used herein in the Examples is an assay that measures caspase 3/7 activity and cells with decreased mitochondrial membrane potential.” left out
Following PC1448 treatment, adherent and non-adherent cells were harvested and washed with cold PBS. […] Samples were analyzed by flow cytometry measuring the fluorescence emissions from 515 nm to 530 nm for caspase detection, and 574 nm to 600 nm for mitochondrial membrane potential detection. […]
HT-29 cancer cells were treated with 2.5 μM, 5.0 μM and 10 μM of PC1526 or PC1448 for 23 hours, or with 2.5 μM, 5.0 μM and 10 μM PC1422 for 24 hours and assessed using the Dual Sensor: MitoCasp™ Assay. […]

CRL-2522 cells = test: Dual Sensor: MitoCasp Assay in CRL-2522 normal fibroblast cells; format: cell-based, human
Excerpt: as §1, §2
CRL-2522 cells, acquired from ATCC, (American Type Culture Collection) are normal fibroblast cells that originated from human foreskin. CRL-2522 cells were maintained in RPMI 1640 medium (Gibco) supplemented with 10% fetal bovine serum (Cansera), 100 U/mL penicillin, 100 μg/mL streptomycin and 0.25 μg/mL amphotericin B. Cultures were maintained in medium at 37° C. with 5% CO2 and 100% relative humidity. […]

MDA-MB-231 cells = test: Dual Sensor: MitoCasp Assay in MDA-MB-231 breast cancer cells; format: cell-based, human
Excerpt: as §1, §2
The MDA-MB-231 cell line (ATCC #HTB-26) was derived from the pleural effusion of a patient with a breast adenocarcinoma (Cailleau et al., 1974). The cells were maintained in RPMI 1640 (Gibco) supplemented with 10% fetal bovine serum (Camera), 100 U/mL penicillin, 100 μg/mL streptomycin and 0.25 μg/mL amphotericin B. Cultures were maintained in medium at 37° C. with 5% CO2 and 100% relative humidity. […]

[1] = Haemolytic properties of selected saponins; settings: saponins purified to more than 75%
Excerpt: The haemolytic properties of the various saponins that have been purified to more than 75% have been examined and are provided in Table 39. Haemolytic properties are not directly related to anti-cancer or apoptosis inducing properties of saponins but may be related to toxicity and utility of the saponins for preparation of injectable formulations. Saponins most suitable for injectable formulation will be less haemolytic. QS21, a purified Quillaja saponaria saponin with known haemolytic activity is used as reference.

MCF-7 cells = test: Dual Sensor: MitoCasp Assay in MCF-7 breast cancer cells; format: cell-based, human; settings: 5 and 10 μM, 24 hours
Excerpt: Techniques to assay enzymatic and signaling processes involved in apoptosis have been developed as standard protocols. One example of an early step in apoptosis, is the release of cytochrome C from mitochondria and the activation of caspase-3. Induction of the caspases (a series of cytosolic proteases) is one of the most consistently observed features of apoptosis. Caspases are a family of proteolytic enzymes that transmit the apoptotic signal using a proteolytic cascade. […] Caspases 3 and 7 are effector caspases, central to the caspase cascade pathways. In particular, caspase-3 plays a central role in the process. […] Collapse of the mitochondrial membrane potential during apoptosis prevents the dye from accumulating in the mitochondria resulting in a decrease in fluorescent intensity that can be detected with flow cytometry. […] In this assay, caspase 3/7 activity is detected using a cell permeable carboxyfluorescein labeled caspase inhibitor, which binds covalently to active caspases 3 and 7. Cells that contain bound inhibitor are detected by an increase in fluorescence when samples are analyzed by flow cytometry. […]
MCF-7 cells were treated with 5.0 μM and 10 μM of saponins PC1526, PC1464 and PC1422 for 24 hours and assessed using Dual Sensor: MitoCasp™ Assay.

[2] = system: PC-3, MDA-MB-231, WiDr, and HT-29 Cells; test: Order of apoptosis potency across cancer cell lines; design: species or system human; settings: rank based on responses observed in PC-3, MDA-MB-231, WiDr, and HT-29 Cells; 1 = most active
[3] = CRL-2522 cells, 2.5 μM PC1380, 32 hr
[4] = CRL-2522 cells, 5.0 μM PC1380, 32 hr
[5] = CRL-2522 cells, 10.0 μM PC1380, 32 hr
[6] = CRL-2522 cells, 15.0 μM PC1380, 32 hr
[7] = CRL-2522 cells, 2.5 μM PC1422, 36 hr
[8] = CRL-2522 cells, 5.0 μM PC1422, 36 hr
[9] = CRL-2522 cells, 10.0 μM PC1422, 36 hr
[10] = CRL-2522 cells, 15.0 μM PC1422, 36 hr
[11] = 5.0 μM saponin, 36 hours (comparison of saponins)

Compound: CC1OC(OC(=O)C23CCC(C)(C)CC2C2=CCC4C5(C)CCC(OC6OC(C(=O)O)C(O)C(O)C6OC6OC(CO)C(O)C(O)C6O)C(C)(C=O)C5CCC4(C)C2(C)CC3O)C(OC2OC(C)C(OC3OCC(O)C(O)C3O)C(O)C2O)C(OC2OC(CO)C(O)C2O)C1O (centres unmarked) [PC1380]
- Cells with caspase 3/7 activity (PC-3 cells; 2.5 μM PC1380, 35 hr): 11.4%
- Cells with decreased mitochondrial membrane potential (PC-3 cells; 2.5 μM PC1380, 35 hr): 5.8%
- Cells with caspase 3/7 activity (PC-3 cells; 5.0 μM PC1380, 35 hr): 15.3%
- Cells with decreased mitochondrial membrane potential (PC-3 cells; 5.0 μM PC1380, 35 hr): 7.1%
- Cells with caspase 3/7 activity (PC-3 cells; 10.0 μM PC1380, 35 hr): 14.9%
- Cells with decreased mitochondrial membrane potential (PC-3 cells; 10.0 μM PC1380, 35 hr): 8.7%
- Cells with caspase 3/7 activity (PC-3 cells; 15.0 μM PC1380, 35 hr): 31.8%
- Cells with decreased mitochondrial membrane potential (PC-3 cells; 15.0 μM PC1380, 35 hr): 15.9%
- Cells with Caspase 3/7 activity and decreased mitochondrial membrane potential vs untreated (in words) (PC-3 cells; PC1380 15.0-2.5 μM, 35 hours): small increase
- Induction of apoptosis (in words, FIG. 6) (HT-29 cancer cells; 5.0 μM, 10 μM and 15 μM): does not induce apoptosis
- Cells with caspase 3/7 activity (CRL-2522 cells; [3]): 0.4%
- Cells with decreased mitochondrial membrane potential (CRL-2522 cells; [3]): 1.8%
- Cells with caspase 3/7 activity (CRL-2522 cells; [4]): 1.0%
- Cells with decreased mitochondrial membrane potential (CRL-2522 cells; [4]): 4.0%
- Cells with caspase 3/7 activity (CRL-2522 cells; [5]): 1.2%
- Cells with decreased mitochondrial membrane potential (CRL-2522 cells; [5]): 2.6%
- Cells with caspase 3/7 activity (CRL-2522 cells; [6]): 0.9%
- Cells with decreased mitochondrial membrane potential (CRL-2522 cells; [6]): 4.5%
- Apoptosis (in words) (CRL-2522 cells; CRL-2522 cells, PC1380 15.0-2.5 μM, 32 hours): no significant apoptosis
- Cells with caspase 3/7 activity (MDA-MB-231 cells; 2.5 μM PC1380, 34 hr): 6.2%
- Cells with decreased mitochondrial membrane potential (MDA-MB-231 cells; 2.5 μM PC1380, 34 hr): 3.2%
- Cells with caspase 3/7 activity (MDA-MB-231 cells; 5.0 μM PC1380, 34 hr): 8.0%
- Cells with decreased mitochondrial membrane potential (MDA-MB-231 cells; 5.0 μM PC1380, 34 hr): 4.7%
- Cells with caspase 3/7 activity (MDA-MB-231 cells; 10.0 μM PC1380, 34 hr): 9.4%
- Cells with decreased mitochondrial membrane potential (MDA-MB-231 cells; 10.0 μM PC1380, 34 hr): 6.6%
- Cells with caspase 3/7 activity (MDA-MB-231 cells; 15.0 μM PC1380, 34 hr): 7.9%
- Cells with decreased mitochondrial membrane potential (MDA-MB-231 cells; 15.0 μM PC1380, 34 hr): 4.3%
- Apoptosis activity (in words) (MDA-MB-231 cells; PC1380 15.0-2.5 μM, 34 hours): no significant apoptosis activity

Compound: QS21 [reference compound]
- HD50 [1]: 7.5 µM

Compound: Vaccaroside E [PC1422]
- HD50 [1]: 43.8 µM
- Cells with caspase 3/7 activity (PC-3 cells; 2.5 μM PC1422, 36 hr): 42.2%
- Cells with decreased mitochondrial membrane potential (PC-3 cells; 2.5 μM PC1422, 36 hr): 23.6%
- Cells with caspase 3/7 activity (PC-3 cells; 5.0 μM PC1422, 36 hr): 49.1%
- Cells with decreased mitochondrial membrane potential (PC-3 cells; 5.0 μM PC1422, 36 hr): 30.0%
- Cells with caspase 3/7 activity (PC-3 cells; 10.0 μM PC1422, 36 hr): 55.7%
- Cells with decreased mitochondrial membrane potential (PC-3 cells; 10.0 μM PC1422, 36 hr): 53.7%
- Cells with caspase 3/7 activity (PC-3 cells; 15.0 μM PC1422, 36 hr): 57.1%
- Cells with decreased mitochondrial membrane potential (PC-3 cells; 15.0 μM PC1422, 36 hr): 53.3%
- Concentration of greatest effect on apoptosis (PC-3 cells; 36 hours): above 10 μM
- Induction of apoptosis at concentrations as low as (PC-3 cells; 36 hours): 2.5 µM
- Caspase 3/7 activity compared to untreated cells / induction of apoptosis (in words, FIG. 5) (HT-29 cancer cells; 5.0 μM and 10 μM): increase in caspase 3/7 activity
- Cells with caspase 3/7 activity (CRL-2522 cells; [7]): 3.1%
- Cells with decreased mitochondrial membrane potential (CRL-2522 cells; [7]): 3.4%
- Cells with caspase 3/7 activity (CRL-2522 cells; [8]): 15.3%
- Cells with decreased mitochondrial membrane potential (CRL-2522 cells; [8]): 5.1%
- Cells with caspase 3/7 activity (CRL-2522 cells; [9]): 12.8%
- Cells with decreased mitochondrial membrane potential (CRL-2522 cells; [9]): 19.2%
- Cells with caspase 3/7 activity (CRL-2522 cells; [10]): 7.3%
- Cells with decreased mitochondrial membrane potential (CRL-2522 cells; [10]): 26.2%
- Cells with Caspase 3/7 activity and decreased mitochondrial membrane potential vs untreated (in words) (CRL-2522 cells; CRL-2522 cells, PC1422 15.0-2.5 μM, 36 hours): modest increase
- Apoptosis in non-cancerous cell line (summary in words) (CRL-2522 cells; fibroblast cell line CRL-2522, summary of the Examples): no or little apoptosis
- Cells with caspase 3/7 activity (MDA-MB-231 cells; 2.5 μM PC1422, 36 hr): 21.1%
- Cells with decreased mitochondrial membrane potential (MDA-MB-231 cells; 2.5 μM PC1422, 36 hr): 13.7%
- Cells with caspase 3/7 activity (MDA-MB-231 cells; 5.0 μM PC1422, 36 hr): 32.2%
- Cells with decreased mitochondrial membrane potential (MDA-MB-231 cells; 5.0 μM PC1422, 36 hr): 32.9%
- Cells with caspase 3/7 activity (MDA-MB-231 cells; [11]): 41.2%
- Cells with decreased mitochondrial membrane potential (MDA-MB-231 cells; [11]): 21.7%
- Cells with caspase 3/7 activity (MDA-MB-231 cells; 10.0 μM PC1422, 36 hr): 41.6%
- Cells with decreased mitochondrial membrane potential (MDA-MB-231 cells; 10.0 μM PC1422, 36 hr): 46.0%
- Cells with caspase 3/7 activity (MDA-MB-231 cells; 15.0 μM PC1422, 36 hr): 26.7%
- Cells with decreased mitochondrial membrane potential (MDA-MB-231 cells; 15.0 μM PC1422, 36 hr): 65.2%
- Concentration of greatest effect on apoptosis (MDA-MB-231 cells; 36 hours): 15 µM
- Induction of apoptosis at concentrations as low as (MDA-MB-231 cells; 36 hours): 2.5 µM
- Induction of apoptosis (in words, FIG. 16) (MCF-7 cells): do not induce apoptosis
- Order of Apoptosis Potency [2]: 4
